From paper PMC6211257, “Synthesis and cytotoxic activities of novel copper and silver complexes of 1,3-diaryltriazene-substituted sulfonamides” (Journal of Enzyme Inhibition and Medicinal Chemistry, 2018) come the findings set out here.

Test [1] concerns human colorectal adenocarcinoma (DLD-1) cells. The test can be described thus: MTT cytotoxicity assay, DLD-1. The format is cell-based. Particulars: 48 h, means of three independent experiments. The source says:
(§1) The cells studied were obtained from the American Type Culture Collection (ATCC, Manassas, VA), and included human colorectal adenocarcinoma (DLD-1), cervix carcinoma (HeLa), breast adenocarcinoma (MDA-MB-231), colon adenocarcinoma (HT-29), endometrial adenocarcinoma (ECC-1), prostate cancer (DU-145 and PC-3), normal embryonic kidney (HEK-293), normal prostate epithelium (PNT-1A), and normal retinal pigment epithelium (ARPE-19) cells. As recommended by ATCC, cells were subjected to propagation using DMEM-F12 and RPMI-1640 media, with supplements 10% fetal bovine serum, L-glutamine (2 mM), penicillin (100 U/mL) and streptomycin ([…]) in a humidified atmosphere (5% CO2) at 37 °C. When the cultures reached 70–80% confluence, the cells were harvested using 0.25% trypsin (Sigma).
(§2) Cytotoxic activities were based on the reduction of (3–(4,5-dimethylthiazol-2-yl)-2,5-diphenyltetrazolium bromide) (MTT) by mitochondrial dehydrogenase of viable cells to give a blue formazan product which can be measured spectrophotometrically by UV–Vis measurements. MTT colorimetric assays were performed using 96 well plates. The cells were seeded in a 96 well plate at concentration 5.0 × 10^4 cells/well and incubated at 37 °C for 24 h. After treatment with various concentrations of the test compound (1, 5, 10, 25, 50, 100 and 200 μM), the cells were incubated for an additional 48 h at 37 °C. After incubation, the medium was removed, and the cells in each well were incubated with 100 μL MTT solution (5 mg/mL) for 4 h at 37 °C. MTT solutions were then discarded, and 100 μL DMSO were added to dissolve insoluble formazan crystals. Optical densities were measured at 570 nm (Varioskan Flash Multimode Reader, Thermo, Waltham, MA). Data were obtained from triplicate wells. Cytotoxic effects were determined in reference to negative controls (vehicle treated cells). Cytotoxicity was expressed as the mean percentage increase relative to the unexposed control (mean ± SD). All statistical analyses were performed using SPSS package program for Windows (Version 20, Chicago, IL). Control values were set to 0% cytotoxicity. Cytotoxicity data, where appropriate, were fitted to sigmoidal curves and a four-parameter logistic model was used to calculate the IC50 values, the concentration of material causing 50% inhibition, compared to the untreated controls. 5-Fluorouracil (5-FU) was also used as a control agent[21]^,[22].
For orientation: Tetrazolium dyes change colour on reduction, which living cells bring about.

Test [2] relates to cervix carcinoma (HeLa) cells. The test can be described thus: MTT cytotoxicity assay, HeLa. Type of test: cell-based, human. Particulars: 48 h, cancer cell, MTT, means of three independent experiments.
Description: as §1, §2

The test system of test [3] is breast adenocarcinoma (MDA-MB-231) cells. The test can be described thus: MTT cytotoxicity assay, MDA-MB-231. Type of test: cell-based, human. As to conditions: 48 h, means of three independent experiments.
Description: as §1, §2

Test [4] relates to colon adenocarcinoma (HT-29) cells. The test can be described thus: MTT cytotoxicity assay, HT-29. Particulars: 48 h, means of three independent experiments. Type of test: cell-based, human.
Description: as §1, §2

Test [5] relates to endometrial adenocarcinoma (ECC-1) cells. The test can be described thus: MTT cytotoxicity assay, ECC-1. Type of test: cell-based, human. As to conditions: 48 h, means of three independent experiments.
Description: as §1, §2

Test [6] deals with prostate cancer (DU-145) cells. The test can be described thus: MTT cytotoxicity assay, DU-145. The format is cell-based, human. As to conditions: for IC50: MTT, 48 h.
Description: as §1, §2

Test [7] has as its system prostate cancer (PC-3) cells. The test can be described thus: MTT cytotoxicity assay, PC-3. Particulars: 48 h, means of three independent experiments. The format is cell-based, human.
Description: as §1, §2

Test [8] deals with normal embryonic kidney (HEK-293) cells. The test can be described thus: MTT cytotoxicity assay, HEK-293. Type of test: cell-based, human. As to conditions: 48 h, means of three independent experiments.
Description: as §1, §2

In test [9] the test system is normal prostate epithelium (PNT-1A) cells. The test can be described thus: MTT cytotoxicity assay, PNT-1A. The format is cell-based, human. As to conditions: 48 h.
Description: as §1, §2

For test [10], the system named is normal retinal pigment epithelium (ARPE-19) cells. The test can be described thus: MTT cytotoxicity assay, ARPE-19. The format is cell-based, human. Particulars: 48 h, means of three independent experiments.
Description: as §1, §2

The mark [11] stands for this setting: Homo sapiens, DLD-1, cancer cell.
Setting [12] is: Homo sapiens, MDA-MB-231, cancer cell.
The mark [13] stands for this setting: Homo sapiens, HT-29, cancer cell.
[14] abbreviates: Homo sapiens, ECC-1, cancer cell.
The mark [15] stands for this setting: Homo sapiens, DU-145, cancer cell, means of three independent experiments, read-out: IC50 DU-145.
Setting [16] is: Homo sapiens, PC-3, cancer cell.
[17] abbreviates: Homo sapiens, HEK293, normal cell.
[18] abbreviates: Homo sapiens, PNT1A, normal cell, means of three independent experiments, read-out: IC50 PNT-1A.
Where [19] appears, read: Homo sapiens, ARPE-19, normal cell.

The structures appear in SMILES notation. Like-named read-outs stand apart in the source and are kept apart here.

As a reminder, the IC50 is the midpoint of a concentration-inhibition curve. Consider `NS(=O)(=O)c1cccc(N/N=N/c2ccc(F)cc2)c1` [Compound L1, 3–(3-(4-fluorophenyl)triaz-1-en-1-yl) benzenesulfonamide], for which the IC50 in [1] (setting [11]) is 140 ± 11 µM; in [2] (Homo sapiens, HeLa) it was 179 ± 16 µM; in [3] (setting [12]), 104 ± 28.2 µM; in [4] (setting [13]), 79.4 ± 15.4 µM; in test [5] (setting [14]), 239 ± 27.5 µM; in test [6] (Homo sapiens, DU-145, unit given as M, read-out: IC50 prostate cancer (DU-145)), 29 µM. Besides, the half-maximal inhibitory concentration (IC50) in [6] (setting [15]) came to 29 ± 2.9 µM; in [7] (setting [16]), 168 ± 18.5 µM; in test [8] (setting [17]) it was 132 ± 16.4 µM; in [9] (Homo sapiens, PNT1A, unit given as M, read-out: IC50 normal prostate cells (PNT1-A)) it was 195 µM; in test [9] (setting [18]), 195 ± 23.5 µM; in test [10] (setting [19]), 279 ± 33.8 µM. The “selectivity between prostate cancer cell line (DU-145) and normal prostate cells (PNT1-A)” value in [6] (from IC50 values DU-145 vs PNT1-A) is recorded as “high selectivity”.
In the case of `COc1ccc(/N=N/Nc2cccc(S(N)(=O)=O)c2)cc1OC` [Compound L4, 3–(3-(3,4-dimethoxyphenyl)triaz-1-en-1-yl) benzenesulfonamide], the half-maximal inhibitory concentration (IC50) was above 300 µM in [1] (setting [11]); above 300 µM in test [2] (Homo sapiens, HeLa); 155 ± 2.6 µM in test [3] (setting [12]); above 300 µM in test [4] (setting [13]); above 300 µM in test [5] (setting [14]); 182 ± 23.4 µM in [6] (setting [15]). Moreover, the IC50 in test [7] (setting [16]) was 299 ± 32.3 µM; in [8] (setting [17]), above 300 µM; in test [9] (setting [18]), 237 ± 26.8 µM; in [10] (setting [19]), above 300 µM.
Take `COc1ccc([N+]2=N[N](c3cccc(S(N)(=O)=O)c3)[Cu-]2([O]C(C)=O)[O]C(C)=O)cc1OC` [Compound L4-Cu]: the IC50 stood at 58.4 ± 5.8 µM in [1] (cancer cell); 116 ± 9.2 µM in test [2]; 206 ± 25.1 µM in test [3] (cancer cell); 199 ± 22.5 µM in [4] (cancer cell); 308 ± 34.2 µM in test [5] (cancer cell); 160 ± 18 µM in test [6] (cancer cell, means of three independent experiments, read-out: IC50 DU-145). Also, the IC50 in test [7] (cancer cell) stood at 297 ± 32.4 µM; in [8] (normal cell), 197 ± 23.5 µM; in test [9] (normal cell, means of three independent experiments, read-out: IC50 PNT-1A) it was 125 ± 14.8 µM; in test [10] (normal cell) it was 105 ± 13.5 µM.
